# Legend:
# [1] = system: Flag-tagged MDM2 in LS8817 cells; assay: turnover of FLAG-tagged MDM2 and C464A mutant; type: cell-based, human
# From the text: FIG. 21A-B. Turnover of MDM2 is regulated post-translationally. […] Tubulin was used as a loading control. This experiment was repeated twice with similar results. (B) LS8817 cells transduced with either a FLAG-tagged MDM2 or a FLAG-tagged C464A mutant of MDM2 were selected and the turnover of the FLAG-tagged protein measured by immunoblot after protein synthesis was blocked with cycloheximide for the indicated amount of time. A representative immunoblot is shown and the mean and standard deviation was compiled from two independent experiments.
# [2] = system: LS8817, LS141 and LS0082 cells; assay: SA-β-gal and SAHF (HP1γ) senescence staining, responder lines; type: cell-based, human
# From the text: Mean percentage standard deviation). […] (A) Senescence-associated β-galactosidase and (B) HP1γ staining for senescence associated heterochromatic foci (SAHF) formation was quantitated for three or more independent experiments for each cell line. […] Representative phase contrast micrographs of cells stained for SA-β-gal or immunofluorescence staining for HP1γ in two of the cell lines before (ctrl) and after (PD) drug treatment are shown in the insets of FIGS. 2A and 2B, respectively. (C) BrdU incorporation. […] Error bars represent the standard deviation of the mean calculated from three independent trials. […] Cell number was quantitated by DAPI staining and β-galactosidase staining quantitated as a proportion of total cells. Senescence associated heterochromatic foci were quantitated after cells were fixed with 4% paraformaldehyde, permeabilized with 0.1% Triton, blocked with 2% FBS, and stained with antibodies against HP1γ (1:5000 dilution, 2MOD-1G6 Millipore). Senescent cells were identified by immunofluorescence after treatment of slides with anti-mouse secondary antibodies and quantitation of focal SAHF as a percent of total cells (Leica Upright Confocal SP5 confocal microscope). […] Cell area was measured by with Metamorph software to calculate relative area per cell.
# [3] = system: MDM2 in LS8107 and LS7785-1 cells; assay: MDM2 levels by immunoblot, non-responder cells; type: cell-based, human; details: non-responders LS8107 and LS7785-1; two days
# Description: (A) Immunoblot. […] Tubulin was a loading control. (B) Immunoblot.
# Antibodies against CDK4 (3F121), MDM2 (N-20 and SMP14), total RB (IF8), Cyclin A (H432), p16 (C20), p53 (DO-1 and Bp53-12), tubulin (C20) and FLAG (M2) were obtained from Santa Cruz Biotechnology, phospho-Rb 780 (#9307) from Cell Signalling, and ARF (3642) from Abeam, HAUSP (A300-033A) from Bethyl Laboratories. Treated cells were lysed with buffer composed of 50 mM Tris-HCl, pH7.4, 250 mM NaCl, 5 mM EDTA, 0.5% NP40, 2 mM PMSF, and supplemented with protease inhibitors. Eighty micrograms of protein were resolved by SDS-PAGE and transferred to PVDF membranes. Membranes were incubated overnight with antibodies (1:1000). […] Pre-treatment biopsies were collected within two weeks of the first dose and post-treatment biopsies collected after at last three weeks of treatment. Extracts were prepared in 50 mM Tris-HCl, pH7.4, 150 mM NaCl, 1 mM EDTA, 1% NP40, 0.25% sodium deoxycholate and supplemented with mini-protease inhibitor cocktail (Roche). Tumor response was assessed by reference radiologist by CT scan every six weeks for 36 weeks, and every 12 weeks thereafter.
# [4] = system: p27 in responder and non-responder cells; assay: p27 levels by immunoblot; type: cell-based, human
# From the text: FIG. 22. Additional immunoblot analysis in responder and non-responder cells. […] Actin is a loading control. This experiment was repeated at least three times for each cell line.
# LS8817 and LS0082 cells = assay: BrdU incorporation after release into drug-free medium; type: cell-based, human; details: after seven days of drug treatment
# From the text: (§1) Mean percentage standard deviation). (*p<0.05). (A) Senescence-associated β-galactosidase and (B) HP1γ staining for senescence associated heterochromatic foci (SAHF) formation was quantitated for three or more independent experiments for each cell line. (*p<0.05). Representative phase contrast micrographs of cells stained for SA-β-gal or immunofluorescence staining for HP1γ in two of the cell lines before (ctrl) and after (PD) drug treatment are shown in the insets of FIGS. 2A and 2B, respectively. (C) BrdU incorporation. Cell lines were treated with PD0332991 for seven days, and released into drug-free medium containing BrdU for the number of days indicated. Error bars represent the standard deviation of the mean calculated from three independent trials.
# [5] = system: LS8107 and LS7785-1 cells; assay: as above; type: cell-based, human; details: after seven days of drug treatment
# From the text: as §1
# [6] = system: MDM2 in SNB19 glioma cells; assay: MDM2 expression by immunoblot; type: cell-based
# Description: (§2) Antibodies against CDK4 (3F121), MDM2 (N-20 and SMP14), total RB (IF8), Cyclin A (H432), p16 (C20), p53 (DO-1 and Bp53-12), tubulin (C20) and FLAG (M2) were obtained from Santa Cruz Biotechnology, phospho-Rb 780 (#9307) from Cell Signalling, and ARF (3642) from Abeam, HAUSP (A300-033A) from Bethyl Laboratories. Treated cells were lysed with buffer composed of 50 mM Tris-HCl, pH7.4, 250 mM NaCl, 5 mM EDTA, 0.5% NP40, 2 mM PMSF, and supplemented with protease inhibitors. Eighty micrograms of protein were resolved by SDS-PAGE and transferred to PVDF membranes. Membranes were incubated overnight with antibodies (1:1000). […] Cycles were repeated every four weeks and patients are still on trial. Pre-treatment biopsies were collected within two weeks of the first dose and post-treatment biopsies collected after at last three weeks of treatment. Extracts were prepared in 50 mM Tris-HCl, pH7.4, 150 mM NaCl, 1 mM EDTA, 1% NP40, 0.25% sodium deoxycholate and supplemented with mini-protease inhibitor cocktail (Roche). Tumor response was assessed by reference radiologist by CT scan every six weeks for 36 weeks, and every 12 weeks thereafter. The clinical trial was approved by the Institutional Review Board of Memorial Sloan-Kettering Cancer Center and all patients provided written informed consent (NCT01209598).
# [7] = system: MDM2 in DBTRG-05MG glioma cells; assay: MDM2 expression by immunoblot; type: cell-based
# Description: as §2
# [8] = ratio of MDM2 detected by Image J scanning in treated versus untreated cultures
smiles,measurement,setting,value
CC(=O)c1c(C)c2cnc(Nc3ccc(N4CCNCC4)cn3)nc2n(C2CCCC2)c1=O [PD0332991],stability of wild type Flag-tagged MDM2,[1],still turned over
same,stability of the C464A mutant of MDM2,[1]; Flag-tagged E3 ligase-deficient mutant,did not affect
same,number of SA-β-gal or SAHF positive cells,[2]; seven days after exposure,significant increase
same,concentration giving a significant increase in SA-β-gal or SAHF positive cells,"[2]; seven days, concentrations as low as",≤ 100 nM
same,MDM2 reduction,[3],not
same,p27 levels,[4],unchanged
same,return to the cell cycle after the drug was removed,LS8817 and LS0082 cells,did not
same,time to return to the cell cycle after the drug was removed,[5],≤ 48 h
same,MDM2 expression levels reduced compared to the non-treated cells,[6],greater than 34%
same,ΔMDM2 with PD,[6]; [8],0.08
same,MDM2 expression levels reduced compared to the non-treated cells,[7],greater than 34%
same,ΔMDM2 with PD,[7]; [8],0.49

# Reference: patent US9889135B2, “Companion diagnostic for CDK4 inhibitors” (Memorial Sloan-Kettering Cancer Center, priority 2013, dated 2018)
